US20220175766A1, “COMPOSITIONS AND METHODS OF TREATMENT” (GB004, Inc., priority 2019, published 2022)
Read-outs that look alike come from different tables or passages of the source.

What was measured:
[1] = Biopharmaceutical Classification System (BCS) classification; type: physicochemical; conditions: low solubility/dissolution rate and high permeability
Description: Compound 1 can be classified as a BCS Class 2 compound (according to the Biopharmaceutical Classification System as defined by the “Guidance for Industry: Waiver of In Vivo Bioavailability and Bioequivalence studies for immediate release solid oral dosage forms based on a Biopharmaceutics Classification System”) which indicates it has a low solubility/dissolution rate and high permeability.

[2] = Phase 1a multiple ascending dose study (oral solution): plasma pharmacokinetics; type: in vivo, human; conditions: for concentration at 0.5 h: Hour 0.5; for concentration at 0.5 h / concentration at 1 h / concentration at 2 h / concentration at 3 h / concentration at 4 h / concentration at 6 h / concentration at 8 h / concentration at 12 h / concentration at 16 h / concentration at 24 h: read-out: Compound 1 concentration, Conc (SD); for concentration at 1 h: Hour 1; for concentration at 2 h: Hour 2; for concentration at 3 h: Hour 3; for concentration at 4 h: Hour 4; for concentration at 6 h: Hour 6; for concentration at 8 h: Hour 8; for concentration at 12 h: Hour 12; for concentration at 16 h: Hour 16; for concentration at 24 h: Hour 24
Description: Compound 1 was administered as the HCl-salt (prepared analogously to Example 2.1).
The secondary objective was to characterize the multiple dose pharmacokinetic (PK) parameters of Compound 1, after ascending doses. Secondary endpoints included determination of PK parameters in plasma and urine, fecal excretion and assessment of colonic biopsy samples.
Blood samples were collected at the following time points relative to dose administration on Day 1 and Day 7: pre-dose; 0.5, 1, 2, 3, 4, 6, 8, 12, 16 and 24 hours post dose. Analysis and concentration determinations were performed using a liquid chromatography-mass spectrometry and liquid chromatography-tandem mass spectrometry (LC/MS/MS) method.

[3] = Cohort 1, 60 mg once daily, Day 7
[4] = Cohort 2, 120 mg once daily, Day 7
[5] = Cohort 3, 240 mg once daily, Day 7
[6] = Cohort 4, 120 mg once daily, Day 7
[7] = Cohort 5, 60 mg once daily, Day 7
[8] = human, plasma, oral, 60 mg, Cohort 1, 60 mg once daily, Day 7
[9] = human, plasma, oral, 60 mg, Cohort 1, 60 mg, Day 1
[10] = human, plasma, oral, 60 mg, Cohort 5, 60 mg once daily, Day 7
[11] = human, plasma, oral, 60 mg, Cohort 5, 60 mg, Day 1
[12] = human, plasma, oral, 120 mg, Cohort 2, 120 mg once daily, Day 7

Structure (SMILES): CC(C)(C)OC(=O)N1CCN(Cc2ccn(Cc3ccc(Cl)cc3)c(=O)c2O)CC1 [Compound 1, tert-butyl 4-((1-(4-chlorobenzyl)-3-hydroxy-2-oxo-1,2-dihydropyridin-4-yl)methyl)piperazine-1-carboxylate]
- BCS classification [1]: BCS Class 2
- ARAUC (accumulation ratio of AUC), mean [2, 3]: 2.1
- ARCmax (accumulation ratio of Cmax), mean [2, 3]: 1.0
- Tmax, median (range) ([2]; Cohort 1, 60 mg, Day 1): 0.5 (0.5-1.0) h
- ARAUC (accumulation ratio of AUC), mean [2, 4]: 1.8
- ARCmax (accumulation ratio of Cmax), mean [2, 4]: 1.2
- ARAUC (accumulation ratio of AUC), mean [2, 5]: 1.4
- ARCmax (accumulation ratio of Cmax), mean [2, 5]: 1.0
- ARAUC (accumulation ratio of AUC), mean [2, 6]: 2.3
- ARCmax (accumulation ratio of Cmax), mean [2, 6]: 1.3
- Tmax, median (range) ([2]; Cohort 4, 120 mg, Day 1): 0.5 (0.5-1.0) h
- ARAUC (accumulation ratio of AUC), mean [2, 7]: 3.0
- ARCmax (accumulation ratio of Cmax), mean [2, 7]: 1.3
- concentration at 0.5 h [2, 8]: 4.33 ng/mL
- concentration at 1 h [2, 8]: 3.02 ng/mL
- concentration at 2 h [2, 8]: 1.85 ng/mL
- concentration at 3 h [2, 8]: 0 ng/mL
- concentration at 4 h [2, 8]: 0 ng/mL
- concentration at 6 h [2, 8]: 0 ng/mL
- concentration at 8 h [2, 8]: 0 ng/mL
- concentration at 12 h [2, 8]: 0 ng/mL
- concentration at 16 h [2, 8]: 0 ng/mL
- concentration at 24 h [2, 8]: 0 ng/mL
- AUC(0-t) ([2]; human, plasma, oral, 60 mg, Cohort 1, 60 mg once daily, Day 7, read-out: AUC(0-t), mean): 17 ng·h/mL
- Cmax ([2]; human, plasma, oral, 60 mg, Cohort 1, 60 mg once daily, Day 7, read-out: Cmax, mean): 4.33 ng/mL
- concentration at 0.5 h [2, 9]: 3.88 ng/mL
- concentration at 1 h [2, 9]: 3.16 ng/mL
- concentration at 4 h [2, 9]: 0 ng/mL
- concentration at 6 h [2, 9]: 0 ng/mL
- concentration at 8 h [2, 9]: 0 ng/mL
- concentration at 12 h [2, 9]: 0 ng/mL
- concentration at 16 h [2, 9]: 0 ng/mL
- concentration at 24 h [2, 9]: 0 ng/mL
- AUC(0-t) ([2]; human, plasma, oral, 60 mg, Cohort 1, 60 mg, Day 1, read-out: AUC(0-τ) column, AUClast is presented (footnote b), mean (SD)): 5.32 ng·h/mL
- Cmax ([2]; human, plasma, oral, 60 mg, Cohort 1, 60 mg, Day 1, read-out: Cmax, mean (SD)): 4.11 ng/mL
- concentration at 0.5 h [2, 10]: 6.24 ng/mL
- concentration at 1 h [2, 10]: 4.6 ng/mL
- concentration at 2 h [2, 10]: 2.57 ng/mL
- concentration at 3 h [2, 10]: 1.99 ng/mL
- concentration at 4 h [2, 10]: 1.62 ng/mL
- concentration at 6 h [2, 10]: 2.15 ng/mL
- concentration at 8 h [2, 10]: 2 ng/mL
- concentration at 12 h [2, 10]: 1.7 ng/mL
- concentration at 16 h [2, 10]: 1.59 ng/mL
- concentration at 24 h [2, 10]: 1.18 ng/mL
- AUC(0-t) ([2]; human, plasma, oral, 60 mg, Cohort 5, 60 mg once daily, Day 7, read-out: AUC(0-t), mean): 53.2 ng·h/mL
- Cmax ([2]; human, plasma, oral, 60 mg, Cohort 5, 60 mg once daily, Day 7, read-out: Cmax, mean): 6.31 ng/mL
- concentration at 0.5 h [2, 11]: 4.83 ng/mL
- concentration at 1 h [2, 11]: 3.94 ng/mL
- concentration at 3 h [2, 11]: 0 ng/mL
- concentration at 4 h [2, 11]: 0 ng/mL
- concentration at 6 h [2, 11]: 0 ng/mL
- concentration at 8 h [2, 11]: 0 ng/mL
- concentration at 12 h [2, 11]: 0 ng/mL
- concentration at 16 h [2, 11]: 0 ng/mL
- concentration at 24 h [2, 11]: 0 ng/mL
- AUC ([2]; human, plasma, oral, 60 mg, Cohort 5, 60 mg, Day 1, read-out: AUC(0-τ), mean (SD)): 28.7 ng·h/mL
- Cmax ([2]; human, plasma, oral, 60 mg, Cohort 5, 60 mg, Day 1, read-out: Cmax, mean (SD)): 5.06 ng/mL
- concentration at 0.5 h [2, 12]: 11.1 ng/mL
- concentration at 1 h [2, 12]: 7.7 ng/mL
- concentration at 2 h [2, 12]: 4.5 ng/mL
- concentration at 3 h [2, 12]: 3.19 ng/mL
- concentration at 4 h [2, 12]: 1.6 ng/mL
- concentration at 6 h [2, 12]: 2.04 ng/mL
- concentration at 8 h [2, 12]: 2.26 ng/mL
- concentration at 12 h [2, 12]: 1.41 ng/mL
- concentration at 16 h [2, 12]: 1.39 ng/mL
- concentration at 24 h [2, 12]: 0 ng/mL
- AUC(0-t) ([2]; human, plasma, oral, 120 mg, Cohort 2, 120 mg once daily, Day 7, read-out: AUC(0-t), mean): 48.2 ng·h/mL
- Cmax ([2]; human, plasma, oral, 120 mg, Cohort 2, 120 mg once daily, Day 7, read-out: Cmax, mean): 11.4 ng/mL
